Source: US9790210B2, “N-(monocyclic aryl),N'-pyrazolyl-urea, thiourea, guanidine and cyanoguanidine compounds as TrkA kinase inhibitors” (Array BioPharma Inc., priority 2012, dated 2017)

Tests used:
Assay in all cases: KinaseProfiler
Format in all cases: biochemical
Settings in all cases: 10 μM, ATP near Km
AKT1 = molecular target: T1, AKT1 (Homo sapiens, UniProt P31749)
T1 construct: purchased Millipore (KinaseProfiler service)
Experimental: (§1) A representative compound (Example 15) of the invention was tested for off-target kinase activity at a concentration of 10 μM by Millipore, Inc. in their KinaseProfiler™ service against all the kinases available in their full kinase panel. The compound was run in duplicate at a concentration of ATP near the Km for each individual kinase according to Millipore's specifications. The results are shown in Table B. Data are reported as percent of control (POC) and are the average of the two replicates.

Bmx = molecular target: T2, Bmx (Homo sapiens, UniProt P51813)
T2 construct: purchased Millipore (KinaseProfiler service)
Experimental: as §1

CDK1/cyclinB = molecular target: T3, CDK1/cyclinB (Homo sapiens, UniProt P06493)
T3 construct: purchased Millipore (KinaseProfiler service)
Experimental: as §1

CHK1 = molecular target: T4, CHK1 (Homo sapiens, UniProt O14757)
T4 construct: purchased Millipore, Inc. (KinaseProfiler service)
Experimental: as §1

CK1delta = molecular target: T5, CK1delta (Homo sapiens, UniProt P48730)
T5 construct: purchased Millipore, Inc. (KinaseProfiler service)
Experimental: as §1

CK1gamma3 = molecular target: T6, CK1gamma3 (Homo sapiens, UniProt Q9Y6M4)
T6 construct: purchased Millipore, Inc. (KinaseProfiler service)
Experimental: as §1

DAPK3 = molecular target: T7, DAPK3 (Homo sapiens, UniProt O43293)
T7 construct: purchased Millipore, Inc. (KinaseProfiler service)
Experimental: as §1

DYRK2 = molecular target: T8, DYRK2 (Homo sapiens, UniProt Q92630)
T8 construct: purchased Millipore, Inc. (KinaseProfiler service)
Experimental: as §1

EphA4 = molecular target: T9, EphA4 (Homo sapiens, UniProt P54764)
T9 construct: purchased Millipore, Inc. (KinaseProfiler service)
Experimental: as §1

EphA8 = molecular target: T10, EphA8 (Homo sapiens, UniProt P29322)
T10 construct: purchased Millipore, Inc. (KinaseProfiler service)
Experimental: as §1

FGFR1 = molecular target: T11, FGFR1 (Homo sapiens, UniProt P11362)
T11 construct: purchased Millipore, Inc. (KinaseProfiler service)
Experimental: as §1

Fer = molecular target: T12, Fer (Homo sapiens, UniProt P16591)
T12 construct: purchased Millipore, Inc. (KinaseProfiler service)
Experimental: as §1

Flt1 = molecular target: T13, Flt1 (Homo sapiens, UniProt P17948)
T13 construct: purchased Millipore, Inc. (KinaseProfiler service)
Experimental: as §1

HIPK3 = molecular target: T14, HIPK3 (Homo sapiens, UniProt Q9H422)
T14 construct: purchased Millipore, Inc. (KinaseProfiler service)
Experimental: as §1

Haspin = molecular target: T15, Haspin (Homo sapiens, UniProt Q8TF76)
T15 construct: purchased Millipore, Inc. (KinaseProfiler service)
Experimental: as §1

IGF-1R = molecular target: T16, IGF-1R (Homo sapiens, UniProt P08069)
T16 construct: purchased Millipore, Inc. (KinaseProfiler service)
Experimental: as §1

IKKalpha = molecular target: T17, IKKalpha (Homo sapiens, UniProt O15111)
T17 construct: purchased Millipore, Inc. (KinaseProfiler service)
Experimental: as §1

IKKbeta = molecular target: T18, IKKbeta (Homo sapiens, UniProt O14920)
T18 construct: purchased Millipore, Inc. (KinaseProfiler service)
Experimental: as §1

JNKlalpha1 = molecular target: T19, JNKlalpha1 (Homo sapiens, UniProt P45983)
T19 construct: purchased Millipore, Inc. (KinaseProfiler service)
Experimental: as §1

MAPKAP-K5 = molecular target: T20, MAPKAP-K5 (Homo sapiens, UniProt Q8IW41)
T20 construct: purchased Millipore, Inc. (KinaseProfiler service)
Experimental: as §1

MARK2 = molecular target: T21, MARK2 (Homo sapiens, UniProt Q7KZI7)
T21 construct: purchased Millipore, Inc. (KinaseProfiler service)
Experimental: as §1

MINK = molecular target: T22, MINK (Homo sapiens, UniProt Q8N4C8)
T22 construct: purchased Millipore, Inc. (KinaseProfiler service)
Experimental: as §1

MKK6 = molecular target: T23, MKK6 (Homo sapiens, UniProt P52564)
T23 construct: purchased Millipore, Inc. (KinaseProfiler service)
Experimental: as §1

NLK = molecular target: T24, NLK (Homo sapiens, UniProt Q9UBE8)
T24 construct: purchased Millipore, Inc. (KinaseProfiler service)
Experimental: as §1

PKCepsilon = molecular target: T25, PKCepsilon (Homo sapiens, UniProt Q02156)
T25 construct: purchased Millipore, Inc. (KinaseProfiler service)
Experimental: as §1

PKCiota = molecular target: T26, PKCiota (Homo sapiens, UniProt P41743)
T26 construct: purchased Millipore, Inc. (KinaseProfiler service)
Experimental: as §1

PKD2 = molecular target: T27, PKD2 (Homo sapiens, UniProt Q9BZL6)
T27 construct: purchased Millipore, Inc. (KinaseProfiler service)
Experimental: as §1

PhKgamma2 = molecular target: T28, PhKgamma2 (Homo sapiens, UniProt P15735)
T28 construct: purchased Millipore, Inc. (KinaseProfiler service)
Experimental: as §1

Ret = molecular target: T29, Ret (Homo sapiens, UniProt P07949)
T29 construct: purchased Millipore, Inc. (KinaseProfiler service)
Experimental: as §1

Ron = molecular target: T30, Ron (Homo sapiens, UniProt Q04912)
T30 construct: purchased Millipore, Inc. (KinaseProfiler service)
Experimental: as §1

Rsk4 = molecular target: T31, Rsk4 (Homo sapiens, UniProt Q9UK32)
T31 construct: purchased Millipore, Inc. (KinaseProfiler service)
Experimental: as §1

SGK2 = molecular target: T32, SGK2 (Homo sapiens, UniProt Q9HBY8)
T32 construct: purchased Millipore, Inc. (KinaseProfiler service)
Experimental: as §1

Syk = molecular target: T33, Syk (Homo sapiens, UniProt P43405)
T33 construct: purchased Millipore, Inc. (KinaseProfiler service)
Experimental: as §1

TAK1 = molecular target: T34, TAK1 (Homo sapiens, UniProt O43318)
T34 construct: purchased Millipore, Inc. (KinaseProfiler service)
Experimental: as §1

TBK1 = molecular target: T35, TBK1 (Homo sapiens, UniProt Q9UHD2)
T35 construct: purchased Millipore, Inc. (KinaseProfiler service)
Experimental: as §1

TEC Activated = molecular target: T36, TEC Activated (Homo sapiens, UniProt P42680)
T36 construct: purchased Millipore, Inc. (KinaseProfiler service)
Experimental: as §1

TNK2 = molecular target: T37, TNK2 (Homo sapiens, UniProt Q07912)
T37 construct: purchased Millipore, Inc. (KinaseProfiler service)
Experimental: as §1

TSSK1 = molecular target: T38, TSSK1 (Homo sapiens, UniProt Q9BXA7)
T38 construct: purchased Millipore, Inc. (KinaseProfiler service)
Experimental: as §1

ULK2 = molecular target: T39, ULK2 (Homo sapiens, UniProt Q8IYT8)
T39 construct: purchased Millipore, Inc. (KinaseProfiler service)
Experimental: as §1

VRK2 = molecular target: T40, VRK2 (Homo sapiens, UniProt Q86Y07)
T40 construct: purchased Millipore, Inc. (KinaseProfiler service)
Experimental: as §1

c-RAF = molecular target: T41, c-RAF (Homo sapiens, UniProt P04049, Y340D/Y341D)
T41 construct: purchased Millipore, Inc. (KinaseProfiler service)
Experimental: as §1

T39 sequence (Q8IYT8 whole entry): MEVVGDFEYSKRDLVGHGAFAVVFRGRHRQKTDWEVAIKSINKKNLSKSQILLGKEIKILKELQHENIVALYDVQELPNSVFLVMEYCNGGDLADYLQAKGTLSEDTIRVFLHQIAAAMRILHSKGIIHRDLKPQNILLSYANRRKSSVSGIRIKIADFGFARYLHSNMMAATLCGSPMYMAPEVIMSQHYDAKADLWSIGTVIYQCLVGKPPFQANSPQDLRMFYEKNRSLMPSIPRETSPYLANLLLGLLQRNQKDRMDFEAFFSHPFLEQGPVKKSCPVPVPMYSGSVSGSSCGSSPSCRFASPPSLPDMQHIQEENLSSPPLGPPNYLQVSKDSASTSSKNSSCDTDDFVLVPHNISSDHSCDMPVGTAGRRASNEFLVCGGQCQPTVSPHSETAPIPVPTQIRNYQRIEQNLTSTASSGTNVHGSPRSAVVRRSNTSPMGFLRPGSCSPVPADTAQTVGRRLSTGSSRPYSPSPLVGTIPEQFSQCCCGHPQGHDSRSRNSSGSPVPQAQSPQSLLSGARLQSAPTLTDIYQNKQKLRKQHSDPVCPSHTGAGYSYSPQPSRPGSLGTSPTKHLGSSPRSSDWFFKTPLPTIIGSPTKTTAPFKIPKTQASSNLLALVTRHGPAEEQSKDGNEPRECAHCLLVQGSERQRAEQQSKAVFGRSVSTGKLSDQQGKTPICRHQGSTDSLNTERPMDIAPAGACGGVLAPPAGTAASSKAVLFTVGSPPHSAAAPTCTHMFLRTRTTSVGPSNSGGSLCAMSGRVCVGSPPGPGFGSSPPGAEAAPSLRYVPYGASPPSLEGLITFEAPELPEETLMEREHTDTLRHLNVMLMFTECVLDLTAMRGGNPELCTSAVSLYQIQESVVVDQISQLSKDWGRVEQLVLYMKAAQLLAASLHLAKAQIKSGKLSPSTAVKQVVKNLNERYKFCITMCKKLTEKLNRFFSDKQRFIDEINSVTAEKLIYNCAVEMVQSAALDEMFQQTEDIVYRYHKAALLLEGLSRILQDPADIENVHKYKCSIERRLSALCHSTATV
T32 sequence (Q9HBY8 whole entry): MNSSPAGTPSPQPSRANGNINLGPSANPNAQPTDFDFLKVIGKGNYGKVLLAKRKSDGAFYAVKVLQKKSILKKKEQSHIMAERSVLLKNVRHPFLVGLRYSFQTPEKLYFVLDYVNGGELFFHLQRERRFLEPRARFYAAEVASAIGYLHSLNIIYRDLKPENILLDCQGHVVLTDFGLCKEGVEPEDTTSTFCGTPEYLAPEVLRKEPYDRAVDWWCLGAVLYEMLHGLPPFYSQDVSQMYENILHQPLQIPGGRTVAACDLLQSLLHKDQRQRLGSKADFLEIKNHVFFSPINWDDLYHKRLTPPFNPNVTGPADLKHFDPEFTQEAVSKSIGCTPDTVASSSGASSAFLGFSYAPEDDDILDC
T3 sequence (P06493 whole entry): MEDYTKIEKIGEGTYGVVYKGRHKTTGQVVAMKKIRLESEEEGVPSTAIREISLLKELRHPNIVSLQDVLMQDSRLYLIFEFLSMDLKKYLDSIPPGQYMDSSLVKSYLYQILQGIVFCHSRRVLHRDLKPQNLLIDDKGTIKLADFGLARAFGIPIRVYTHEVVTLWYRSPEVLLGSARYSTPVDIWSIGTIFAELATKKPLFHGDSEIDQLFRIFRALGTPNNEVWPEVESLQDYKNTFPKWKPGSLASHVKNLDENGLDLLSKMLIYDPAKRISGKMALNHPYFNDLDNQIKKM
T3 sequence (P14635 whole entry partner): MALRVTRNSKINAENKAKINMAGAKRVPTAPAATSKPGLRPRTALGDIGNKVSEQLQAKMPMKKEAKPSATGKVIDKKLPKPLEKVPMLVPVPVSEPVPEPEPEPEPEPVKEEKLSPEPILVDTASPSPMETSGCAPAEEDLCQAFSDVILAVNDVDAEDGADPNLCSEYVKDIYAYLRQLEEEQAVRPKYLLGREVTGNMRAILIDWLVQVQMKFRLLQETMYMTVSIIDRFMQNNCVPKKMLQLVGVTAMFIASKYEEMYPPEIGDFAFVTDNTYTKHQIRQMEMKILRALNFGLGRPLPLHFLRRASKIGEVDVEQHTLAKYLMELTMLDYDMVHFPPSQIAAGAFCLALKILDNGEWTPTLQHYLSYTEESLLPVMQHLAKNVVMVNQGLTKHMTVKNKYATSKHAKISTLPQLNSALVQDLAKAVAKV
T28 sequence (P15735 whole entry): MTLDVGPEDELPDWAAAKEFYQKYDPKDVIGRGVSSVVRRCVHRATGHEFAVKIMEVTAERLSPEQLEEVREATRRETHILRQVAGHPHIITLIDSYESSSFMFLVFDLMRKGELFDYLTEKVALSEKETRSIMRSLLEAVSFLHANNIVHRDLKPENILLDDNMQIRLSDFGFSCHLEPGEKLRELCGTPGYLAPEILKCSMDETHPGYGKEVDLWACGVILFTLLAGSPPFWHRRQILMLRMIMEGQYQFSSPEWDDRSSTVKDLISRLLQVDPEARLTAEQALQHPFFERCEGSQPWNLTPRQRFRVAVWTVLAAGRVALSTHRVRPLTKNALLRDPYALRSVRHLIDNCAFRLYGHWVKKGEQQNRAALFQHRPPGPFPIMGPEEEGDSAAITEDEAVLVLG
T37 sequence (Q07912 whole entry): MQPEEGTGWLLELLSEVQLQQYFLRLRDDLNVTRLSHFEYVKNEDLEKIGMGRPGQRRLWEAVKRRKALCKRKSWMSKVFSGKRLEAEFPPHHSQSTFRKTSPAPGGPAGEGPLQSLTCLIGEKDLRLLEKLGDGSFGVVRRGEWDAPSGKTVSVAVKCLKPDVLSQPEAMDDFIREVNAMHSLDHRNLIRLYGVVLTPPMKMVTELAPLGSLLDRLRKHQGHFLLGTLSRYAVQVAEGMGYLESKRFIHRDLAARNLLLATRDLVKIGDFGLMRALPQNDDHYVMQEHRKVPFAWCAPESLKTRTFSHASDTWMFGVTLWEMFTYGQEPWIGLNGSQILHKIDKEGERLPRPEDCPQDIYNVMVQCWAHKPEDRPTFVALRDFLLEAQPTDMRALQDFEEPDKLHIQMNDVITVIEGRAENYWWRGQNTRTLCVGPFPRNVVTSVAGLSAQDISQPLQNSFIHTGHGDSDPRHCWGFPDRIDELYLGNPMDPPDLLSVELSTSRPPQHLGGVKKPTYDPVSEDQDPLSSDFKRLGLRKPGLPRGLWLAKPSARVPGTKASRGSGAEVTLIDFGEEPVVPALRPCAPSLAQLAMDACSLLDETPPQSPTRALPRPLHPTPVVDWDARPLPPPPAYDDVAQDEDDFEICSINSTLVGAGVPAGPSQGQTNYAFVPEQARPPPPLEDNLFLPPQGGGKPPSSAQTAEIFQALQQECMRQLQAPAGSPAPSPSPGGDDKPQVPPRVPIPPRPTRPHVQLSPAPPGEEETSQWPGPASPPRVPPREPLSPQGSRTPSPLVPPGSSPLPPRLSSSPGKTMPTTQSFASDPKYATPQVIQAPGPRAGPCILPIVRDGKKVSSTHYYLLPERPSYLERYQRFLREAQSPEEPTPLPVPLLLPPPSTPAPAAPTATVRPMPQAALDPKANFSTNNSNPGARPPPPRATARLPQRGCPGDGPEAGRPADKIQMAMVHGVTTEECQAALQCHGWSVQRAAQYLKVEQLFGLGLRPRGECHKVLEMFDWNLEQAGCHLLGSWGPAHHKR
T17 sequence (O15111 whole entry): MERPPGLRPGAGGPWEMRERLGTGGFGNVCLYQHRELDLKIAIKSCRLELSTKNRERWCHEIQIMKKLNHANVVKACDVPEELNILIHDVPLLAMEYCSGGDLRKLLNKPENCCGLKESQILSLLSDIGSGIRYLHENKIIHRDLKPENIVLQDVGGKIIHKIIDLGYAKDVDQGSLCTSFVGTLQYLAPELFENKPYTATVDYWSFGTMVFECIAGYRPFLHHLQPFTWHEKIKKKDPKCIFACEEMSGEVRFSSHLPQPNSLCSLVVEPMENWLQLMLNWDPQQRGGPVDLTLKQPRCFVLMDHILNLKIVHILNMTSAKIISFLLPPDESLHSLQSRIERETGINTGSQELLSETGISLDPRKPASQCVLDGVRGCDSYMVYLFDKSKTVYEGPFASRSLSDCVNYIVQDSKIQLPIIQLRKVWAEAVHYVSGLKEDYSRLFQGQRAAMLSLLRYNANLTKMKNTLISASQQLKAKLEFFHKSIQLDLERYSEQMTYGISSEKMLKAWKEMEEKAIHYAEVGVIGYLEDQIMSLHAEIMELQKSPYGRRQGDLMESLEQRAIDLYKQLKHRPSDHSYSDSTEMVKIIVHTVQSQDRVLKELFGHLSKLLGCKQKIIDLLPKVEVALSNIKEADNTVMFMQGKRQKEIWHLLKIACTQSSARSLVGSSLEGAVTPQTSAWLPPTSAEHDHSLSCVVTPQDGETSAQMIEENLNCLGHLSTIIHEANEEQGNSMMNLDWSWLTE
T40 sequence (Q86Y07 whole entry): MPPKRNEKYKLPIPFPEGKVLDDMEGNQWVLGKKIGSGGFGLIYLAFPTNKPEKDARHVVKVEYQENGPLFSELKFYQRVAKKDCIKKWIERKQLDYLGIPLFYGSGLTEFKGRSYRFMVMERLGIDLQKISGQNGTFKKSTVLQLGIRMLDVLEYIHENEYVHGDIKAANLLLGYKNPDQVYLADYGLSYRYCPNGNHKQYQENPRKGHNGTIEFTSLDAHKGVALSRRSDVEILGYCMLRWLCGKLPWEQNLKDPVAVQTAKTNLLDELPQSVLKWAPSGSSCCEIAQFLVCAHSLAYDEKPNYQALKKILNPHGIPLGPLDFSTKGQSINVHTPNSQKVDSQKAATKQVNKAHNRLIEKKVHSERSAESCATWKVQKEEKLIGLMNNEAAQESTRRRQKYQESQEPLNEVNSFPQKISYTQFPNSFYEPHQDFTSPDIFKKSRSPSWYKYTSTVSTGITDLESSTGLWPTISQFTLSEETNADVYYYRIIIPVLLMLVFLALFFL

- Avg POC (AKT1): 120 POC
- Avg POC (Bmx): 129.5 POC
- Avg POC (CDK1/cyclinB): 97 POC
- Avg POC (CHK1): 118 POC
- Avg POC (CK1delta): 111.5 POC
- Avg POC (CK1gamma3): 112.5 POC
- Avg POC (DAPK3): 106 POC
- Avg POC (DYRK2): 93.5 POC
- Avg POC (EphA4): 115 POC
- Avg POC (EphA8): 127.5 POC
- Avg POC (FGFR1): 111.5 POC
- Avg POC (Fer): 99 POC
- Avg POC (Flt1): 97.5 POC
- Avg POC (HIPK3): 101 POC
- Avg POC (Haspin): 121.5 POC
- Avg POC (IGF-1R): 85 POC
- Avg POC (IKKalpha): 128 POC
- Avg POC (IKKbeta): 113.5 POC
- Avg POC (JNKlalpha1): 107 POC
- Avg POC (MAPKAP-K5): 92 POC
- Avg POC (MARK2): 101.5 POC
- Avg POC (MINK): 121.5 POC
- Avg POC (MKK6): 124.5 POC
- Avg POC (NLK): 117 POC
- Avg POC (PKCepsilon): 97 POC
- Avg POC (PKCiota): 68 POC
- Avg POC (PKD2): 98.5 POC
- Avg POC (PhKgamma2): 110.5 POC
- Avg POC (Ret): 91.5 POC
- Avg POC (Ron): 108.5 POC
- Avg POC (Rsk4): 105 POC
- Avg POC (SGK2): 117.5 POC
- Avg POC (Syk): 100 POC
- Avg POC (TAK1): 95 POC
- Avg POC (TBK1): 110 POC
- Avg POC (TEC Activated): 101.5 POC
- Avg POC (TNK2): 124 POC
- Avg POC (TSSK1): 80 POC
- Avg POC (ULK2): 95 POC
- Avg POC (VRK2): 94 POC
- Avg POC (c-RAF): 98.5 POC
SMILES: COCCCc1cc(Cl)c(Cl)cc1NC(=O)Nc1c(C)c(-c2cnn(C)c2)nn1-c1ccccc1 [Example 15, 1-(4,5-dichloro-2-(3-methoxypropyl)phenyl)-3-(1′,4-dimethyl-1-phenyl-1H,1′H-[3,4′-bipyrazol]-5-yl)urea]
